Reference: patent US20130053277A1 (priority 2010, published 2013)

Experiments:
[1] = molecular target: M2 H+ channel, Singapore wild-type (Influenza A virus, UniProt P10920); assay type: cell-based, Influenza A (Singapore H2N2 isolate)
[2] = molecular target: influenza A virus M2 proton-selective ion channel, wild-type (Influenza A virus, UniProt P0DOF5); conditions: cited from earlier work
influenza A virus M2 proton-selective ion channel, wild-type, sequence (P0DOF5 whole entry, looked up): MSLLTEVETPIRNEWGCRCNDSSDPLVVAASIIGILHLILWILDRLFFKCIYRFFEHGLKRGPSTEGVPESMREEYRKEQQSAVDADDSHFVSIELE

M2 H+ channel, Singapore wild-type, sequence (P10920 whole entry, looked up): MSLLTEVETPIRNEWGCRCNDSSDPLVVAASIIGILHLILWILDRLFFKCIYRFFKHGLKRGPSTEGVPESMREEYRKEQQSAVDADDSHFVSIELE

Row | SMILES | Ks (Monod coefficient, inhibitory constant) [1] [nM] | Ks (dynamic range statement) [1] [nm] | activity (growth retardation relief, O.D.600) compared between the two drugs [1] | relief of growth inhibition by the channel from the Singapore strain [1] | relief of growth retardation of bacteria expressing the M2 channel [1] | isochronic apparent inhibitory binding constant [2] [µM]
1 | CC(N)C12CC3CC(CC(C3)C1)C2 (centres unmarked) [rimantadine, Rimantadine] | 15 | 15 | more pronounced than amantadine | substantially relieved | significantly alleviate | 
2 | NC12CC3CC(CC(C3)C1)C2 [amantadine, Amantadine] | 140 |  |  | substantially relieved |  | 16
